In US8039616B2, “Benzodiazepine derivatives for treating hepatitis C infection” (AstraZeneca AB, priority 2005, dated 2011):

Target: T1, HCV Polymerase (Hepatitis C virus genotype 1a, UniProt P27958)
T1 construct: the HCV Polymerase was expressed and purified by Prof Alistair Hawkins; made in house
Assay: Polymerase 96 well microtitre plate based IC50 assay (33P-UTP incorporation, streptavidin FlashPlates)
Format: biochemical
Conditions: polyA/biotinylated-U13 template-primer, 100 minutes at 25° C.
Description: Polymerase 96 Well Microtitre Plate Based IC50 Assay
Inhibitors of HCV Polymerase can be detected radioactively by monitoring the incorporation of ^33P-UTP within an RNA template/Bi-primer system using streptavidin coated FlashPlates. The template and primer for the reaction can be bought externally from Amersham (Poly A) and MWG-Dharmacon (Biotinylated-U13). The cold UTP can be purchased from Roche and the HCV Polymerase was expressed and purified by Prof Alistair Hawkins at Newcastle University, UK.
50 μl substrate, 40 μl enzyme, 10 μl compound=100 μl assay
Compounds are diluted so that DMSO remains 10% at all times. E.g. 5 μl compound (10 mM)+5 μl DMSO+90 μl Buffer (see below for buffer)
Some 20 mM Tris-HCl, pH 7.5, 5 mM MgCl2, 25 mM KCL, 3 mM DTT and 0.05% BSA is made up.
The PolyA and Biotinylated U13 are annealed at 70° C. for 5 minutes to 40 μM U13 (212 μg/ml polyA.) and cooled gently on ice prior to use (110 μl primer (80 μM)+5.5 μl poly A+104.5 μl dH20.). Some 200 μl annealed primer/template is mixed with 12.8 μl UTP (1 mM stock), 25.6 μl 33p-UTP and 31761.6 μl Buffer to make the substrate mix.
From IC50 dilution plates 10 μl are transferred from column 3 into columns 3 and 3 on two separate assay plates. This is repeated for all compound dilutions to 2 separate assay plates. Then 10 μl 10% DMSO solution is added to positive and negative controls (see plate map below). In addition, 40 μl 20 mM Tris-HCl buffer is added to negative controls.
Then 50 μl substrate mix is added to all wells.
Then 40 μl enzyme mix each is added to all other wells and the reaction is left for 100 minutes shaking at 25° C.
The reaction is terminated with the addition of 100 μl, 100 mM EDTA and the volume is transferred to a streptavidin coated flash plate, covered and left for an hour.
All plates are washed three times in SkanWasher plate-washer (Skatron Instruments) under programme ‘AH’. The wash buffer contains, 0.01M phosphate buffer, 0.0027M potassium chloride and 0.137M sodium chloride, pH 7.4 at 25° C., 0.05% Tween
All plate are recovered and the cpmB read in the TopCount (supplied by DPM solutions), protocol 6.

T1 sequence (P27958 2421-3011): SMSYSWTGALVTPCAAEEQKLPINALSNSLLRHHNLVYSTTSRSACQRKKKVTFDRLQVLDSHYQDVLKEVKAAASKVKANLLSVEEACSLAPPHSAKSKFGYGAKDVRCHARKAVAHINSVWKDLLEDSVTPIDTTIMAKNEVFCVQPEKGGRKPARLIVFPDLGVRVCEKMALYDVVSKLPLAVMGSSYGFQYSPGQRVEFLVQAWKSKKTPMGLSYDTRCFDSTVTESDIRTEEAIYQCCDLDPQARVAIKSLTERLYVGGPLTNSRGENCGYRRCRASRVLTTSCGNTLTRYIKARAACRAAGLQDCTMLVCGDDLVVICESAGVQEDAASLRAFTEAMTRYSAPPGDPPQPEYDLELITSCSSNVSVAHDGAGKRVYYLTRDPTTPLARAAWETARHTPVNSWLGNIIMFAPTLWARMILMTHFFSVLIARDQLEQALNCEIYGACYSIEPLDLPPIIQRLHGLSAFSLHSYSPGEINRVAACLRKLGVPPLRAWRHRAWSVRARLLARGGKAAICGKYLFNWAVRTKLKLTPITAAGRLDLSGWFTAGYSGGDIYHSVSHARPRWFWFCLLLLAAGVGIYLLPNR

Row | SMILES | IC50
1 | COc1ccc(OC)c(C(=O)N[C@@H]2N=C(c3ccc(Cl)cc3)c3ccccc3NC2=O)c1 [Example 5, (R)—N-[5-(4-Chloro-phenyl)-2-oxo-2,3-dihydro-1H-benzo[e][1,4]diazepin-3-yl]-2,5-dimethoxy-benzamide] | > 1000 nM
2 | COc1ccc(OC)c(C(=O)NC2N=C(c3ccc(Cl)cc3)c3ccccc3NC2=O)c1 (stereo not drawn) [Example 3, N-[5-(4-Chloro-phenyl)-2-oxo-2,3-dihydro-1H-benzo[e][1,4]diazepin-3-yl]-2,5-dimethoxy-benzamide] | < 1000 nM
3 | O=C(NC1N=C(c2ccc(Cl)cc2)c2ccccc2NC1=O)c1sccc1Br (stereo not drawn) [Example 12, 3-Bromo-thiophene-2-carboxylic acid [5-(4-chloro-phenyl)-2-oxo-2,3-dihydro-1H-benzo[e][1,4]diazepin-3-yl]-amide] | > 1000 nM
4 | COc1ccc(F)cc1C(=O)NC1N=C(c2ccc(Cl)cc2)c2ccccc2NC1=O (stereo not drawn) [Example 6, N-[5-(4-Chloro-phenyl)-2-oxo-2,3-dihydro-1H-benzo[e][1,4]diazepin-3-yl]-5-fluoro-2-methoxy-benzamide] | > 1000 nM
5 | COc1ccc(OC)c(C(=O)N[C@H]2N=C(c3ccc(Cl)cc3)c3ccccc3NC2=O)c1 [Example 4, (S)—N-[5-(4-Chloro-phenyl)-2-oxo-2,3-dihydro-1H-benzo[e][1,4]diazepin-3-yl]-2,5-dimethoxy-benzamide] | < 1000 nM
6 | CCOc1ccccc1C(=O)N[C@H]1N=C(c2ccc(Cl)cc2)c2ccccc2NC1=O [Example 2, (S)—N-[5-(4-Chloro-phenyl)-2-oxo-2,3-dihydro-1H-benzo[e][1,4]diazepin-3-yl]-2-ethoxy-benzamide] | > 1000 nM
7 | COc1ccc(Cl)cc1C(=O)N[C@H]1N=C(c2ccc(Cl)cc2)c2ccccc2NC1=O [Example 10, (S)-5-Chloro-N-[5-(4-chloro-phenyl)-2-oxo-2,3-dihydro-1H-benzo[e][1,4]diazepin-3-yl]-2-methoxy-benzamide] | < 1000 nM
8 | COc1ccc(F)cc1C(=O)N[C@H]1N=C(c2ccc(Cl)cc2)c2ccccc2NC1=O [Example 7, (S)—N-[5-(4-Chloro-phenyl)-2-oxo-2,3-dihydro-1H-benzo[e][1,4]diazepin-3-yl]-5-fluoro-2-methoxy-benzamide] | > 1000 nM
9 | CCOc1ccccc1C(=O)NC1N=C(c2ccc(Cl)cc2)c2ccccc2NC1=O (stereo not drawn) [Example 1, N-[5-(4-Chloro-phenyl)-2-oxo-2,3-dihydro-1H-benzo[e][1,4]diazepin-3-yl]-2-ethoxy-benzamide] | > 1000 nM
10 | COc1ccc(F)cc1C(=O)N[C@@H]1N=C(c2ccc(Cl)cc2)c2ccccc2NC1=O [Example 8, (R)—N-[5-(4-Chloro-phenyl)-2-oxo-2,3-dihydro-1H-benzo[e][1,4]diazepin-3-yl]-5-fluoro-2-methoxy-benzamide] | > 1000 nM
11 | COc1ccc(Cl)cc1C(=O)NC1N=C(c2ccc(Cl)cc2)c2ccccc2NC1=O (stereo not drawn) [Example 9, 5-Chloro-N-[5-(4-chloro-phenyl)-2-oxo-2,3-dihydro-1H-benzo[e][1,4]diazepin-3-yl]-2-methoxy-benzamide] | < 1000 nM
12 | COc1ccc(Cl)cc1C(=O)N[C@@H]1N=C(c2ccc(Cl)cc2)c2ccccc2NC1=O [Example 11, (R)-5-Chloro-N-[5-(4-chloro-phenyl)-2-oxo-2,3-dihydro-1H-benzo[e][1,4]diazepin-3-yl]-2-methoxy-benzamide] | > 1000 nM
